From patent US9113629B2, “4-amino-6-(4-substituted-phenyl)-picolinates and 6-amino-2-(4-substituted-phenyl)-pyrimidine-4-carboxylates and their use as herbicides” (DOW AGROSCIENCES LLC, priority 2013, dated 2015)
Where two headings read alike, the source gives them in different places.

Tests used:
[1] = system: Key Grass and Sedge Weeds as well as Grass Crops; experiment: Post-emergent Test II herbicidal activity (Table 6); format: in vivo; conditions: post-emergence, 336 h; for pest or weed control at 70 g/ha: application rate 70 g ai/ha; for pest or weed control at 140 g/ha: application rate 140 g ai/ha
How it was run: (§1)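 Compounds, dissolved in 97:3 acetone/DMSO and diluted into an aqueous carrier containing crop oil concentrate and Triton X-155, are applied over the top of young plants at 187 L/ha. Injury is scored visually at 14 d, 0% meaning no effect and 100% complete kill.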

[2] = system: Key Broadleaf Weed and Crop Species; experiment: Post-emergent Test II herbicidal activity (Table 5); format: in vivo; conditions: post-emergence, 336 h, post-emergent, 14 days after application; for pest or weed control at 70 g/ha: 70 g ai/ha; for pest or weed control at 140 g/ha: 140 g ai/ha
How it was run: as §1

[3] = Triticum aestivum, TRZSS (wheat), read-out: Visual Growth Reduction (%) 14 Days After Application, TRZSS
[4] = CYPES: yellow nutsedge (Cyperus esculentus), read-out: Visual Growth Reduction (%) 14 Days After Application, CYPES
[5] = DIGSA: crabgrass (Digitaria sanguinalis), read-out: Visual Growth Reduction (%) 14 Days After Application, DIGSA
[6] = ECHCG: barnyardgrass (Echinochloa crus-galli), read-out: Visual Growth Reduction (%) 14 Days After Application, ECHCG
[7] = ORYSA: rice (Oryza sativa), read-out: Visual Growth Reduction (%) 14 Days After Application, ORYSA
[8] = SETFA: giant foxtail (Setaria faberi), read-out: Visual Growth Reduction (%) 14 Days After Application, SETFA
[9] = SORVU: grain sorghum (Sorghum vulgare), read-out: Visual Growth Reduction (%) 14 Days After Application, SORVU
[10] = ZEAMX: maize, corn (Zea mays), read-out: Visual Growth Reduction (%) 14 Days After Application, ZEAMX
[11] = ABUTH: velvetleaf (Abutilon theophrasti), read-out: Visual Growth Reduction (%) 14 Days After Application ABUTH
[12] = AMARE: redroot pigweed (Amaranthus retroflexus), read-out: Visual Growth Reduction (%) 14 Days After Application AMARE
[13] = BRSNN: oilseed-rape, canola (Brassica napus), read-out: Visual Growth Reduction (%) 14 Days After Application BRSNN
[14] = CHEAL: lambsquarters (Chenopodium album), read-out: Visual Growth Reduction (%) 14 Days After Application CHEAL
[15] = EPHHL: wild poinsettia (Euphorbia heterophylla), read-out: Visual Growth Reduction (%) 14 Days After Application EPHHL
[16] = HELAN: sunflower (Helianthus annuus), read-out: Visual Growth Reduction (%) 14 Days After Application HELAN
[17] = VIOTR: wild pansy (Viola tricolor), read-out: Visual Growth Reduction (%) 14 Days After Application VIOTR

Q: What does the source list for `COC(=O)c1nc(-c2ccc(I)c(F)c2)c(Cl)c(N)c1Cl` [Compound 13, Methyl 4-amino-3,5-dichloro-6-(3-fluoro-4-iodophenyl)picolinate]?
A: pest or weed control at 70 g/ha [1, 3]: 45 to 59%; pest or weed control at 140 g/ha [1, 3]: 60 to 74%; pest or weed control at 70 g/ha [1, 4]: 75 to 84%; pest or weed control at 140 g/ha [1, 4]: 75 to 84%; pest or weed control at 70 g/ha [1, 5]: 60 to 74%; pest or weed control at 140 g/ha [1, 5]: 75 to 84%; pest or weed control at 70 g/ha [1, 6]: 60 to 74%; pest or weed control at 140 g/ha [1, 6]: 75 to 84%; pest or weed control at 70 g/ha [1, 7]: 0 to 29%; pest or weed control at 140 g/ha [1, 7]: 0 to 29%; pest or weed control at 70 g/ha [1, 8]: 45 to 59%; pest or weed control at 140 g/ha [1, 8]: 75 to 84%; pest or weed control at 70 g/ha [1, 9]: 85 to 94%; pest or weed control at 140 g/ha [1, 9]: 85 to 94%; pest or weed control at 70 g/ha [1, 10]: 60 to 74%; pest or weed control at 140 g/ha [1, 10]: 60 to 74%; pest or weed control at 70 g/ha [2, 11]: 85 to 94%; pest or weed control at 140 g/ha [2, 11]: 95 to 100%; pest or weed control at 70 g/ha [2, 12]: 85 to 94%; pest or weed control at 140 g/ha [2, 12]: 95 to 100%; pest or weed control at 70 g/ha [2, 13]: 85 to 94%; pest or weed control at 140 g/ha [2, 13]: 85 to 94%; pest or weed control at 70 g/ha [2, 14]: 95 to 100%; pest or weed control at 140 g/ha [2, 14]: 95 to 100%; pest or weed control at 70 g/ha [2, 15]: 0 to 29%; pest or weed control at 140 g/ha [2, 15]: 30 to 44%; pest or weed control at 70 g/ha [2, 16]: 95 to 100%; pest or weed control at 140 g/ha [2, 16]: 95 to 100%; pest or weed control at 70 g/ha [2, 17]: 0 to 29%; pest or weed control at 140 g/ha [2, 17]: 0 to 29%

Q: With `COC(=O)c1nc(-c2ccc(Br)c(F)c2)c(Cl)c(N)c1Cl` [Compound 73, Methyl 4-amino-6-(4-bromo-3-fluorophenyl)-3,5-dichloropicolinate] as the compound, how does the pest or weed control at 70 g/ha [1, 3] read?
A: 60 to 74%

Q: What about the pest or weed control at 140 g/ha [1, 3] of the same compound?
A: 60 to 74%

Q: And the pest or weed control at 70 g/ha [1, 4]?
A: 95 to 100%

Q: And the pest or weed control at 140 g/ha [1, 4]?
A: 95 to 100%

Q: And the pest or weed control at 70 g/ha [1, 5]?
A: 0 to 29%

Q: And the pest or weed control at 140 g/ha [1, 5]?
A: 45 to 59%

Q: What about the pest or weed control at 70 g/ha [1, 6] of the same compound?
A: 0 to 29%

Q: What about the pest or weed control at 140 g/ha [1, 6] of the same compound?
A: 60 to 74%

Q: And the pest or weed control at 70 g/ha [1, 7]?
A: 0 to 29%

Q: What about the pest or weed control at 140 g/ha [1, 7] of the same compound?
A: 0 to 29%

Q: What about the pest or weed control at 70 g/ha [1, 8] of the same compound?
A: 60 to 74%

Q: And the pest or weed control at 140 g/ha [1, 8]?
A: 60 to 74%

Q: What about the pest or weed control at 70 g/ha [1, 9] of the same compound?
A: 85 to 94%

Q: What about the pest or weed control at 140 g/ha [1, 9] of the same compound?
A: 85 to 94%

Q: What about the pest or weed control at 70 g/ha [1, 10] of the same compound?
A: 60 to 74%

Q: What about the pest or weed control at 140 g/ha [1, 10] of the same compound?
A: 60 to 74%

Q: What about the pest or weed control at 70 g/ha [2, 11] of the same compound?
A: 85 to 94%

Q: What about the pest or weed control at 140 g/ha [2, 11] of the same compound?
A: 85 to 94%

Q: What about the pest or weed control at 70 g/ha [2, 12] of the same compound?
A: 95 to 100%

Q: What about the pest or weed control at 140 g/ha [2, 12] of the same compound?
A: 95 to 100%

Q: What about the pest or weed control at 70 g/ha [2, 13] of the same compound?
A: 95 to 100%

Q: What about the pest or weed control at 140 g/ha [2, 13] of the same compound?
A: 95 to 100%

Q: What about the pest or weed control at 70 g/ha [2, 14] of the same compound?
A: 85 to 94%

Q: And the pest or weed control at 140 g/ha [2, 14]?
A: 85 to 94%

Q: And the pest or weed control at 70 g/ha [2, 15]?
A: 45 to 59%

Q: What about the pest or weed control at 140 g/ha [2, 15] of the same compound?
A: 60 to 74%

Q: And the pest or weed control at 70 g/ha [2, 16]?
A: 95 to 100%

Q: What about the pest or weed control at 140 g/ha [2, 16] of the same compound?
A: 95 to 100%

Q: And the pest or weed control at 70 g/ha [2, 17]?
A: 45 to 59%

Q: And the pest or weed control at 140 g/ha [2, 17]?
A: 45 to 59%
